Experimental data reported in ChEMBL document CHEMBL1154544, “Antitumour polyether macrolides: four new halichondrins from the New Zealand deep-water marine sponge Lissodendoryx sp” (Bioorg Med Chem, 2009).
Converted amounts (≈) assume the structure as drawn.

Each compound was assayed on P388 (assay: Cytotoxicity against mouse P388 cells).
Type: functional, cell-based

Point of comparison: `C=C1C[C@@H]2CC[C@@]34C[C@H]5O[C@H]6[C@@H](O3)[C@H]3O[C@H](CC[C@@H]3O[C@H]6[C@H]5O4)CC(=O)O[C@@H]3[C@@H](C)[C@@H]4O[C@@H]5C[C@]6(C[C@@H]7O[C@]8(C[C@H](C)[C@@H]9O[C@H](CC(=O)CCO)[C@H](O)C[C@@H]9O8)C[C@H](C)[C@@H]7O6)O[C@@H]5C[C@@H]4O[C@H]3C[C@H]3O[C@@H](CC[C@@H]1O2)C[C@@H](C)C3=C` [ISOHOMOHALICHONDRIN B], IC50 0.18 ng/mL (≈ 0.16 nM). Against it:
- C=C1C[C@@H]2CC[C@@]34C[C@H]5O[C@H]6[C@@H](O3)[C@H]3O[C@H](CC[C@@H]3O[C@H]6[C@H]5O4)CC(=O)O[C@@H]3[C@@H](C)[C@@H]4O[C@@H]5C[C@]6(C[C@@H]7O[C@]8(C[C@H](C)[C@@H]9O[C@@H]%10CC(C(O)CCl)O[C@@H]%10C[C@@H]9O8)C[C@H](C)[C@@H]7O6)O[C@@H]5C[C@@H]4O[C@H]3C[C@H]3O[C@@H](CC[C@@H]1O2)C[C@@H](C)C3=C (some centres not stated) — 11-fold higher, 2 ng/mL (≈ 1.75 nM)
- C=C1C[C@@H]2CC[C@@]34C[C@H]5O[C@H]6[C@@H](O3)[C@H]3O[C@H](CC[C@@H]3O[C@H]6[C@H]5O4)CC(=O)O[C@@H]3[C@@H](C)[C@@H]4O[C@@H]5C[C@]6(C[C@@H]7O[C@]8(C[C@H](C)[C@@H]9O[C@@H]%10CC(=O)O[C@@H]%10C[C@@H]9O8)C[C@H](C)[C@@H]7O6)O[C@@H]5C[C@@H]4O[C@H]3C[C@H]3O[C@@H](CC[C@@H]1O2)C[C@@H](C)C3=C — 6.1-fold higher, 1.1 ng/mL (≈ 1.02 nM)
- C=C1C[C@@H]2CC[C@@]34C[C@H]5O[C@H]6[C@@H](O3)[C@H]3O[C@H](CC[C@@H]3O[C@H]6[C@H]5O4)CC(=O)O[C@@H]3[C@@H](C)[C@@H]4O[C@@H]5C[C@]6(C[C@@H]7O[C@]8(C[C@H](C)[C@@H]9O[C@H](CC(C)=O)[C@H](O)C[C@@H]9O8)C[C@H](C)[C@@H]7O6)O[C@@H]5C[C@@H]4O[C@H]3C[C@H]3O[C@@H](CC[C@@H]1O2)C[C@@H](C)C3=C — 4.2-fold higher, 0.76 ng/mL (≈ 0.695 nM)
- C=C1C[C@@H]2CC[C@@]34C[C@H]5O[C@H]6[C@@H](O3)[C@H]3O[C@H](CC[C@@H]3O[C@H]6[C@H]5O4)CC(=O)O[C@@H]3[C@@H](C)[C@@H]4O[C@@H]5C[C@]6(C[C@@H]7O[C@]8(C[C@H](C)[C@@H]9O[C@H]([C@@H](O)C[C@@H](O)CO)C[C@@H]9O8)C[C@H](C)[C@@H]7O6)O[C@@H]5C[C@@H]4O[C@H]3C[C@H]3O[C@@H](CC[C@@H]1O2)C[C@@H](C)C3=C [HALICHONDRIN B] — 4.3-fold higher, 0.78 ng/mL (≈ 0.702 nM)
- C=C1C[C@@H]2CC[C@@]34C[C@H]5O[C@H]6[C@@H](O3)[C@H]3O[C@H](CC[C@@H]3O[C@H]6[C@H]5O4)CC(=O)O[C@@H]3[C@@H](C)[C@@H]4O[C@@H]5C[C@]6(C[C@@H]7O[C@]8(C[C@H](C)[C@@H]9OC(=O)C[C@@H]9O8)C[C@H](C)[C@@H]7O6)O[C@@H]5C[C@@H]4O[C@H]3C[C@H]3O[C@@H](CC[C@@H]1O2)C[C@@H](C)C3=C — 6.1-fold higher, 1.1 ng/mL (≈ 1.08 nM)
- C=C1C[C@@H]2CC[C@@]34C[C@H]5O[C@H]6[C@@H](O3)[C@H]3O[C@H](CC[C@@H]3O[C@H]6[C@H]5O4)CC(=O)O[C@@H]3[C@@H](C)[C@@H]4O[C@@H]5C[C@]6(C[C@@H]7O[C@]8(C[C@H](C)[C@@H]9O[C@@H]%10CC(C(O)CO)O[C@@H]%10C[C@@H]9O8)C[C@H](C)[C@@H]7O6)O[C@@H]5C[C@@H]4O[C@H]3C[C@H]3O[C@@H](CC[C@@H]1O2)C[C@@H](C)C3=C (some centres not stated) [HOMOHALICHONDRIN B] — within 1.5-fold, 0.22 ng/mL (≈ 0.196 nM)
